Read-outs that look alike come from different tables or passages of the source.
Key:
[1] = reduced capability to cycle between reduced and oxidized forms; cited from earlier work
physchem = assay type: physicochemical
Source text: (§1) The mechanism of 38 and 39 formation from 28 is discussed in conjunction with Scheme VI. The pH-rate data in FIG. 1 indicate that rate-determining chloride elimination occurs from the neutral, monoanion, dianion, and trianion forms of 28. Plateaus corresponding to the first three eliminations are indicated on FIG. 1. The increasing rates above pH 11 may pertain to equilibrium trianion formation and rate-determining elimination of chloride from the trianion. Consideration of rate-determining chloride elimination from the various forms of 28 provides the rate law shown in equation 1 [formula] where the rate and equilibrium constants are those shown in Scheme VI. The numerical values for these constants (shown in Scheme VI) were obtained by computer-fitting the data in FIG. 1 to equation 1. The solid line in FIG. 1 was then generated from equation 1 substituted with these constants. The independently determined pKa for monoanion formation (8.26±0.15) is in agreement with the kinetic pKa value (8.3). Thus, the kinetically-determined pKa values in Scheme VI represent actual acid dissociations rather than mixtures of constants. [drawing 5]
(§2) In aerobic aqueous buffer, both 43 and 44 are converted to the corresponding quinones {Scheme IX) by first-order processes. […] The solid curve of Plot A was generated from the rate law, kobsd =k1 +k2 Ka1 /(aH +Ka1), where k1 is the rate of oxidation of the neutral species (1×10^-3 sec^-1), k2 is the rate of oxidation of the hydroquinone monoanion (0.046 sec^-1), pKa1 is the acid dissociation constant (7.78), and aH is the proton activity determined with a pH meter. The acid dissociation constant obtained from the pH-rate data is nearly the same as the value determined previously, 8.26±0.15.1

colon and breast cancers = settings: for IC50: Homo sapiens; for antitumor activity: colon and breast cancers
[2] = lipophilicity (statement)
[3] = assay type: physicochemical
Source text: The hydrolysis of 28 was followed spectrophotometrically at 430 nm in anaerobic aqueous buffer over a pH range of 6 to 12 with [28]=5×10^-5 M. Absorbance vs. time plots for hydrolysis are first order in character, with the first-order rate constants (kobsd)independent of buffer concentration but dependent on pH as shown in FIG. 1. The use of known hydroquinone and quinone extinction coefficients at 430 nm permitted the calculation of product yields: 69±1% 38 and 31±1% 39 regardless of the pH (product structures shown in Scheme VI). The accuracy of the yield determinations was enhanced by the intense hydroquinone visible spectrum and the absence of visible absorbances for the quinone derivative. Product isolation studies confirmed the presence of 39.
as §1
The hydrolysis of 35 in anaerobic buffer proceeds by a first-order process to afford 42 as the sole product. […] The pH-rate profile, obtained over the pH range of 5 to 8, is a straight line of slope +1. […] Computer fitting the pH-rate data to kobsd =k1 Ka1 /aH, and substituting pKa1 =10.3, provides and elimination rate constant of k1 =24 sec^-1.
(§3) Kinetic Studies of Hydrolysis and Oxidation. The hydrolytic studies of 28 and 35 were carried out in anaerobic aqueous buffer, and the reoxidation studies of 43 and 44 were carried out in aerobic aqueous buffer at 30.0°±0.2° C. The anaerobic experiments were carried out with Thunberg cuvettes as previously described. A dimethyl sulfoxide stock of the compound to be studied was prepared fresh, and 50 μL of this stock was added to 2.95 mL of buffer. The absorbance vs time data were obtained on a PERKIN-ELMER 559 or a Lambda-3 UV-vis spectrophotometer and fit to a first-order rate law.

[4] = quinone methide trapping with added 2-mercaptoethanol; assay type: physicochemical; settings: 10 to 100X excess of mercaptoethanol
Source text: Chloride elimination from the neutral and anionic forms of 28 affords an equilibrating mixture of protonated (36), neutral (37), and anionic (37^-) quinone methides. Proton trapping by 37^-, in competition with water trapping of 36 and 37, then affords a mixture of 38 and 39. Evidence of steady-state intermediates capable of trapping nucleophiles (36 and 37) was obtained by adding 10 to 100X excess of Z-mercaptoethanol over 28. […] The presence mercaptoethanol results in formation of a hydroquinone (nucleophile-trapped) product 40 and no quinone 39, however. Thus, quinone methide formation must occur in a rate determining step, followed by its relatively rapid trapping by the mercaptide nuceophile. The mercaptoethanol trapping studies of benzimidazole (See: Skibo, E. B., J. Org. Chem. 1986, 51, 522) and quinazoline (See: Lemus et al., op. cit.) based quinone methides likewise provided evidence of a steady-state species.

[5] = assay type: physicochemical; remark: listed apart in the source
Protocol: Oxygen Reactivity. In order to assess the capability of the title systems to generate reactive oxygen species by quinone/hydroquinone cycling, the rate laws were determined for oxygen oxidation of 43 and 44, Scheme IX. These respective hydroquinones are analogues of 28 and 35 without leaving groups present. As expected, the internal hydrogen bonds of 43 slow oxidation at high pH while the absence of hydrogen bonds in 44 result in stopped flow oxidations under these conditions. However, the crossing of the pH-rate profiles near neutrality (FIG. 3) results in similar rates of oxidation for both systems at physiological pH.
as §2, §3

[6] = value determined previously; cited from earlier work
[7] = read-out: IC50 values as low as
[8] = regardless of pH (pH 6 to 12), 5×10^-5 M, 430 nm
[9] = aerobic aqueous buffer, 30.0 °C

SMILES: COc1cccc2c1C(=N)c1c(O)c3c(c(O)c1C2=O)C[C@@](O)(C(C)=O)C[C@@H]3O[C@H]1C[C@H](N)[C@H](O)[C@H](C)O1 [5-iminodaunorubicin]
- cardiotoxicity [1]: does reduce cardiotoxicity

SMILES: COc1c2nc(CCl)n(C)c(=O)c2c(OC)c2nc(CCl)n(C)c(=O)c12 [compound 16, 2,7-Bis(chloromethyl)-5,10-dimethoxy-3,8-dimethylpyrimido [4,5-g]quinazoline-4,9(3H,8H)-dione]
- ionization at physiological pH (physchem): will not ionize at physiological pH
- IC50 (colon and breast cancers; [7]): ≥ 20 nM

SMILES: COc1c2nc(CBr)n(C)c(=O)c2c(OC)c2nc(CBr)n(C)c(=O)c12 [compound 17, 2,7-Bis (bromomethyl)-5,10-dimethoxy-3,8-dimethylpyrimido[4,5-g]quinazoline-4,9(3H,8H)-dione]
- ionization at physiological pH (physchem): will not ionize at physiological pH
- lipophilicity [2]: lipophilic
- IC50 (colon and breast cancers; [7]): ≥ 20 nM

SMILES: O=C1c2nc(CBr)[nH]c(=O)c2C(=O)c2nc(CBr)[nH]c(=O)c21 [compound 19, 2,7-Bis(bromomethyl)pyrimido[4,5-g]quinazoline-4,5,9,10(3H,8H)-tetrone]
- pKa (physchem; anion formation near neutrality, read-out: pKa (conversion to an anion)): 6.5
- IC50 (colon and breast cancers): > 1000 nM
- antitumor activity (colon and breast cancers): poor activity

SMILES: Cn1c(CCl)nc2c(c1=O)C(=O)c1nc(CCl)n(C)c(=O)c1C2=O [compound 22, 2,7-Bis(chloromethyl)-3,8-dimethylpyrimido[4,5-g]quinazoline-4,5,9,10(3H8H)-tetrone]
- antitumor activity (colon and breast cancers): inactive

SMILES: Cc1nc2c(O)c3c(=O)[nH]c(CCl)nc3c(O)c2c(=O)[nH]1 [compound 28, 2-(Chloromethyl)-5,10-dihydroxy-7-methylpryimido[4,5-g]quinazoline-4,9(3H,8H)-dione]
- yield of hydrolysis product 38 [3, 8]: 69±1%
- yield of hydrolysis product 39 [3, 8]: 31±1%
- pKa (physchem; aqueous buffer, from computer-fit of pH-rate profile of hydrolysis, read-out: kinetic pKa value): 8.3
- observed rate constants in presence of 2-mercaptoethanol vs hydrolysis without it [4]: essentially the same

SMILES: Cc1nc2c(O)c3c(=O)n(C)c(CCl)nc3c(O)c2c(=O)n1C [compound 35, 2-(Chloromethyl)-5,10-dihydroxy-3,7,8-trimethylpyrimido[4,5-g]quinazoline-4,9(3H,8H)-dione]
- stability in protic solvent ([3]; any protic solvent): rapidly eliminates HCl
- k1, rate constant for elimination of chloride from the monoanion ([3]; monoanion, anaerobic aqueous buffer, 30.0 °C): 24 s⁻¹
- rates of hydrolysis ([3]; much above pH 8): stopped-flow rates

SMILES: Cc1nc2c(O)c3c(=O)[nH]c(C)nc3c(O)c2c(=O)[nH]1 [compound 43]
- stability toward oxygen relative to reduced anthracyclines [5]: more stable toward oxygen than reduced anthracyclines
- rate of oxidation of the hydroquinone monoanion [5, 9]: 0.046 s⁻¹
- fold slower oxidation of 43^- than 44^- ([5]; monoanions): 128 fold
- k1, rate of oxidation of the neutral species ([5]; neutral hydroquinone, aerobic aqueous buffer, 30.0 °C): 0.001 s⁻¹
- rate of oxidation at physiological pH [5]: 1.7×10^-2 sec^-1
- pKa (physchem; aerobic aqueous buffer, from pH-rate profile of oxidation, read-out: pKa1 (hydroquinone acid dissociation constant from pH-rate data)): 7.78
- acid dissociation constant (pKa) determined previously [6]: 8.26±0.15

SMILES: Cc1nc2c(O)c3c(=O)n(C)c(C)nc3c(O)c2c(=O)n1C [compound 44]
- stability toward oxygen relative to reduced anthracyclines [5]: more stable toward oxygen than reduced anthracyclines
- rates of oxidation ([5]; at or above pH 9): stopped flow rates
- rate of oxidation of the hydroquinone monoanion [5, 9]: 5.8 s⁻¹
- rate of oxidation at physiological pH [5]: 9×10^-3 sec^-1

— patent publication US5639881A, “Synthesis and elucidation of pyrimido (4,5-Q) quinazoline derivatives” (priority 1991, dated 1997)
